Laboratory results reported in US8871280B1, “Compositions and methods for treating fungal activity in plants or soil” (The United States of America, as represented by the …, priority 2011, dated 2014).

Legend:
Rhizoctonia solani [1] = experiment: Greenhouse suppression of damping off of cucumber seedlings in R. solani infested soil amended with plant extract; format: in vivo, Rhizoctonia solani AG-4, isolate Rs 23A
Rhizoctonia solani [2] = experiment: Fungicidal vs fungistatic potential (regrowth of mycelial plugs on fresh PDA, 7 days); format: cell-based, Rhizoctonia solani AG-4, isolate Rs 23A
Method: The fungicidal and fungistatic potential of the PEs were determined by the method described by Garber and Houstan (Garber R. H., and B. R. Houston, Phytopathology, 49: 449-450 (1959)). In brief, three 5 mm diameter plugs were taken from the peripheral mycelial growth from each plate and placed in a fresh PDA plate. Following incubation at room temperature for 7 days, observations were recorded for new mycelial growth (fungistatic) or no mycelial growth (fungicidal). As control, peripheral mycelial plugs from soybean oil amended PDA plates were checked for fresh mycelial growth in fresh PDA plates.

cucumber seeds = experiment: Greenhouse assay of seed germination and phytotoxicity, soil treated with plant extract alone; settings: in vivo
Method: Soil treatment: For each treatment, 300 g of dry greenhouse soli (Pro-mix, Premier Horticulture LTD, Red Hill, Pa.) was thoroughly mixed with Rhizoctonia inoculum and incubated for 15 days as described above. […] The infested soil treated with only the carrier solution served as an untreated control. Following the treatment, the soil was thoroughly stirred to mix the contents and incubated in a double polythene bag closed tightly in the dark at room temperature for four days for fumigation to occur. Following the incubation, the bag was opened to allow as much PE to dissipate as possible. This was done by sprinkling the surface soil with sterile water every other day, and stirring the soil once every day for seven days. For assay of effect on seed germination and phytotoxicity of the plant extracts, soil was treated with plant extract formulations alone.
Greenhouse studies: Treated soil from each treatment was distributed to 4-inch plastic pots into which 12 seeds of cucumbers (95-100% germination) were sown and lightly watered to keep soil moist. The treatments were color coded and pots were randomized across treatment. All plants were kept in a greenhouse between 20° C. (night) to 26° C. (day) with 14 h of light. There were three pots per treatment in each experiment, and the experiment was repeated three times. As positive control, a broad spectrum popular soil fungicide Banrot® 40 WP (The Scotts Company, Ohio) was used following manufacturer's recommendation to control the disease. Total number of seedlings without any sign of damping off in each pot was recorded and percentage of disease suppression were calculated four weeks after sowing cucumber seeds.

Rhizoctonia solani [3] = experiment: Filter disk fumigation method, mycelial growth inhibition on PDA; format: cell-based, Rhizoctonia solani AG-4, isolate Rs 23A; settings: for Fumig1 % inhibition: fumigation experiment 1; for Fumig2 % inhibition: fumigation experiment 2
Method: (§1) Fungal isolate and preparation of inoculum: Rhizoctonia solani AG-4, isolate Rs 23A is a highly virulent pathogenic isolate which infects many vegetables, ornamentals and turfgrasses (Lewis, J. A., and G. C. Papavizas, Soil Biology and Biochemistry, 9:195-201 (1987)). The fungus was grown in potato dextrose agar (PDA) plates and fungal plugs from the freshly growing mycelium were mixed with moist sterilized cracked wheat in a 2 L flask for 15 days in dark at 22° C. (Lakshman, D. K., et al., Proceedings of the National Academy of Science, USA, 95: 6425-6429 (1998)). The infested wheat was air dried in a sterile hood for 3 days, blended in a homogenizer and sieved through a mesh and stored at 2° C. before soil inoculation. A dose response of the inocula was carried out by thoroughly mixing using 0.25, 0.5, 0.75, 1.0, 1.25 and 1.50 g inoculums per Kg dry weight potting soil plus sterile water to maintain 25-30% moisture and incubating at room temperature for two weeks before sowing cucumber (cv muncher) seeds with the infested soil. The percent germination and post-emergence damping off of cucumber seedlings were recorded. The lowest inoculums dose that induced 100% postemergence damping off was estimated to be 1 to 1.25 g/Kg soil for inocula prepared over the span of the experiments. For soil fumigation with plant extracts (PEs), each time the minimum inoculum dose giving rise to 100% damping off was used.
In the second protocol, the chemical was kept not in direct contact with the fungus and we hypothesized that the plant extract will most likely influence the growth of the pathogen by fumigation action. In this approach, three sterile 15 mm filter paper (Whatman International Ltd, Maidstone, UK) disks were placed on the edge of each of three plates on the PDA. Each disk was impregnated in the center with various amounts (5-50 ul/disk) of the test solution/suspension. For negative control, only soybean oil was placed in the filter disk. […] The average radial growth was calculated and the experiment was repeated one more time. Percent growth inhibition was calculated as reported for poison bed assay.

Rhizoctonia solani [4] = experiment: Poison food technique (contact action), mycelial growth inhibition in PDA; format: cell-based, Rhizoctonia solani AG-4, isolate Rs 23A; settings: for PoisonB1 % inhibition: poison bed experiment 1; for PoisonB2 % inhibition: poison bed experiment 2
Method: as §1
In vitro bioassays: Two in vitro bioassay methods were used to investigate the mycelial growth inhibitory potentials of PEs. In the poison food technique, test chemical/plant extract was mixed at concentrations of 15, 30, 45, 60, 75, and 150 μl per 20 ml autoclaved PDA at 50° C., poured on three sterile disposable plastic plates (100×15 mm, Fisherbrand) at 20 ml/plate and cooled to room temperature to solidify (Dhingra, O.D., and J. B. Sinclair, 1995, Basic Plant Pathology Methods, 2nd Edition, Lewis Publishers, Boca Raton and London). […] Each plate was seeded in the center with a 5 mm diameter agar disk of the freshly grown Rhizoctonia pathogen, mycelial side facing the medium, and sealed with stretched Parafilm® M (Fisher Scientific). The plates were incubated in the dark at room temperature and when the pathogen reached to the edge of the plates in the control treatment (soybean oil), radial measurement of fungal growth in plates treated with PEs were recorded by taking three measurements from each plate. The experiment was repeated one more time. The percent mycelial growth inhibition (MGI) due to PE was calculated using the following formula: […] where dc=Avg. radial growth in mm of pathogen in control plate; dt=avg. radial growth in mm of pathogen in treated plate.

C=CCc1ccc(OC)cc1
58.33%: % Disease suppression (+ PE + R. solani) (Rhizoctonia solani [1]; cucumber damping off, soil amendment at 0.3% (v/w), four weeks after sowing)
98%: Fumig1 % inhibition (Rhizoctonia solani [3]; amount oil 75 μL/20 mL plate)
103%: Fumig2 % inhibition (Rhizoctonia solani [3]; amount oil 75 μL/20 mL plate) | Fumig2 % inhibition (Rhizoctonia solani [3]; amount oil 150 μL/20 mL plate)
97%: Fumig2 % inhibition (Rhizoctonia solani [3]; amount oil 15 μL/20 mL plate) | Fumig1 % inhibition (Rhizoctonia solani [3]; amount oil 30 μL/20 mL plate) | Fumig1 % inhibition (Rhizoctonia solani [3]; amount oil 45 μL/20 mL plate) | Fumig1 % inhibition (Rhizoctonia solani [3]; amount oil 60 μL/20 mL plate)
102%: Fumig2 % inhibition (Rhizoctonia solani [3]; amount oil 30 μL/20 mL plate) | Fumig2 % inhibition (Rhizoctonia solani [3]; amount oil 45 μL/20 mL plate)
100%: Fumig2 % inhibition (Rhizoctonia solani [3]; amount oil 60 μL/20 mL plate) | PoisonB1 % inhibition (Rhizoctonia solani [4]; amount oil 30 μL/20 mL plate) | PoisonB1 % inhibition (Rhizoctonia solani [4]; amount oil 45 μL/20 mL plate) | PoisonB1 % inhibition (Rhizoctonia solani [4]; amount oil 60 μL/20 mL plate) | PoisonB2 % inhibition (Rhizoctonia solani [4]; amount oil 60 μL/20 mL plate) | PoisonB1 % inhibition (Rhizoctonia solani [4]; amount oil 75 μL/20 mL plate) | PoisonB2 % inhibition (Rhizoctonia solani [4]; amount oil 75 μL/20 mL plate) | PoisonB1 % inhibition (Rhizoctonia solani [4]; amount oil 150 μL/20 mL plate) | PoisonB2 % inhibition (Rhizoctonia solani [4]; amount oil 150 μL/20 mL plate)
75.00%: % Seed germination (+ PE only) (cucumber seeds)
92%: PoisonB2 % inhibition (Rhizoctonia solani [4]; amount oil 45 μL/20 mL plate)
13%: PoisonB2 % inhibition (Rhizoctonia solani [4]; amount oil 15 μL/20 mL plate)
95%: Fumig1 % inhibition (Rhizoctonia solani [3]; amount oil 15 μL/20 mL plate)
7.00: Avg. seed Germination (+ PE + R. solani) (Rhizoctonia solani [1]; cucumber, 12 seeds sown per pot, infested soil amended with 0.3% PE)
fungistatic: Fungicidal vs fungistatic nature (Rhizoctonia solani [2]; in vitro, fumigation and contact action)
potent inhibitors: Inhibition of R. solani growth by fumigation action, in words (Rhizoctonia solani [3]; in vitro, filter disk) | Inhibition of R. solani growth by contact (poison bed assay), in words (Rhizoctonia solani [4]; in vitro, PDA)
S: Effect (fumigation) (Rhizoctonia solani [2]; amount oil 15 μL/20 mL plate) | Effect (poison bed, contact action) (Rhizoctonia solani [2]; amount oil 15 μL/20 mL plate) | Effect (fumigation) (Rhizoctonia solani [2]; amount oil 30 μL/20 mL plate) | Effect (poison bed, contact action) (Rhizoctonia solani [2]; amount oil 30 μL/20 mL plate) | Effect (fumigation) (Rhizoctonia solani [2]; amount oil 45 μL/20 mL plate) | Effect (poison bed, contact action) (Rhizoctonia solani [2]; amount oil 45 μL/20 mL plate) | Effect (fumigation) (Rhizoctonia solani [2]; amount oil 60 μL/20 mL plate) | Effect (poison bed, contact action) (Rhizoctonia solani [2]; amount oil 60 μL/20 mL plate) | Effect (fumigation) (Rhizoctonia solani [2]; amount oil 75 μL/20 mL plate) | Effect (poison bed, contact action) (Rhizoctonia solani [2]; amount oil 75 μL/20 mL plate) | Effect (fumigation) (Rhizoctonia solani [2]; amount oil 150 μL/20 mL plate) | Effect (poison bed, contact action) (Rhizoctonia solani [2]; amount oil 150 μL/20 mL plate)
56%: PoisonB2 % inhibition (Rhizoctonia solani [4]; amount oil 30 μL/20 mL plate)
9.00: Avg. seed germination (+ PE only) (cucumber seeds)
94%: PoisonB1 % inhibition (Rhizoctonia solani [4]; amount oil 15 μL/20 mL plate)
99%: Fumig1 % inhibition (Rhizoctonia solani [3]; amount oil 150 μL/20 mL plate)

C=CCN=C=S [Allylisothiocyanate]
100%: Fumig1 % inhibition (Rhizoctonia solani [3]; amount oil 15 μL/20 mL plate) | Fumig2 % inhibition (Rhizoctonia solani [3]; amount oil 15 μL/20 mL plate) | Fumig1 % inhibition (Rhizoctonia solani [3]; amount oil 30 μL/20 mL plate) | Fumig2 % inhibition (Rhizoctonia solani [3]; amount oil 30 μL/20 mL plate) | Fumig1 % inhibition (Rhizoctonia solani [3]; amount oil 45 μL/20 mL plate) | Fumig2 % inhibition (Rhizoctonia solani [3]; amount oil 45 μL/20 mL plate) | Fumig1 % inhibition (Rhizoctonia solani [3]; amount oil 60 μL/20 mL plate) | Fumig2 % inhibition (Rhizoctonia solani [3]; amount oil 60 μL/20 mL plate) | Fumig1 % inhibition (Rhizoctonia solani [3]; amount oil 75 μL/20 mL plate) | Fumig2 % inhibition (Rhizoctonia solani [3]; amount oil 75 μL/20 mL plate) | Fumig1 % inhibition (Rhizoctonia solani [3]; amount oil 150 μL/20 mL plate) | Fumig2 % inhibition (Rhizoctonia solani [3]; amount oil 150 μL/20 mL plate) | PoisonB1 % inhibition (Rhizoctonia solani [4]; amount oil 15 μL/20 mL plate) | PoisonB2 % inhibition (Rhizoctonia solani [4]; amount oil 15 μL/20 mL plate) | PoisonB1 % inhibition (Rhizoctonia solani [4]; amount oil 30 μL/20 mL plate) | PoisonB2 % inhibition (Rhizoctonia solani [4]; amount oil 30 μL/20 mL plate) | PoisonB1 % inhibition (Rhizoctonia solani [4]; amount oil 45 μL/20 mL plate) | PoisonB2 % inhibition (Rhizoctonia solani [4]; amount oil 45 μL/20 mL plate) | PoisonB1 % inhibition (Rhizoctonia solani [4]; amount oil 60 μL/20 mL plate) | PoisonB2 % inhibition (Rhizoctonia solani [4]; amount oil 60 μL/20 mL plate) | PoisonB1 % inhibition (Rhizoctonia solani [4]; amount oil 75 μL/20 mL plate) | PoisonB2 % inhibition (Rhizoctonia solani [4]; amount oil 75 μL/20 mL plate) | PoisonB1 % inhibition (Rhizoctonia solani [4]; amount oil 150 μL/20 mL plate) | PoisonB2 % inhibition (Rhizoctonia solani [4]; amount oil 150 μL/20 mL plate)
